Patent US9072774B2, “Porphyrin nanovesicles” (UNIVERSITY HEALTH NETWORK, priority 2009, dated 2015)

Experiment: Differential scanning calorimetry
Type: physicochemical
Settings: 5 mg/ml in PBS, scan rate 1° C./min
Method: Samples were placed in a vacuum for 30 min prior to measurement. A scan rate of 1° C./min was used for all samples. PBS was used as the reference and one scan cycle of PBS was used as the baseline. For each lipid, three cooling and heating scans were performed and the results averaged to determine the phase transition temperature of the lipids.

transition temperature: 24 °C
Structure (SMILES): CCCCCCCCCCCCCC(=O)OC[C@H](COP(=O)([O-])OCC[N+](C)(C)C)OC(=O)CCCCCCCCCCCCC [DMPC]
